The target in the experiment is T1, Recombinant human α-L-iduronidase protein (Homo sapiens, UniProt P35475).
T1 construct: purchased R&D
T1 sequence (P35475 28-653): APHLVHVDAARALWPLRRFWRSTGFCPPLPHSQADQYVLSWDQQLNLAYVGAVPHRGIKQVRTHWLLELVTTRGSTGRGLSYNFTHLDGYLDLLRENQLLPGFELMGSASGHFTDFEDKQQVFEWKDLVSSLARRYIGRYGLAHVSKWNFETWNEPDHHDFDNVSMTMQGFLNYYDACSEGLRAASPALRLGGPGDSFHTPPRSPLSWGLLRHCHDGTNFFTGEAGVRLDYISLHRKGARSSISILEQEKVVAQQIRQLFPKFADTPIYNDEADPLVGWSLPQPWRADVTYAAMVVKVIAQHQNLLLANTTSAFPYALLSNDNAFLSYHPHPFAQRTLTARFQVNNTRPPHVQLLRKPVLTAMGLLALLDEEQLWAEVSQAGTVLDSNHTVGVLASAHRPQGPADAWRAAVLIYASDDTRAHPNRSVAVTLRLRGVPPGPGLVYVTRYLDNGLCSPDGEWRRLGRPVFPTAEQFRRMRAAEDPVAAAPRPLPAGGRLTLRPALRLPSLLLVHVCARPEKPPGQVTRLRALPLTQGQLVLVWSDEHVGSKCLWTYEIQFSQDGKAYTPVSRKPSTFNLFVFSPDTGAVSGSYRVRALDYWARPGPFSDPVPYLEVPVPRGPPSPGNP
The experiment can be described thus: Differential scanning fluorimetry (DSF) thermal stabilization.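 Further: Classes count stabilization of α-L-iduronidase despite the GALC label.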 To be noted: synthetized Examples 38-94; ΔTm class. The class given is binding. As to the method: The capacity of Compounds of the Disclosure to stabilize α-L-iduronidase was assessed by differential scanning fluorimetry technique. The thermal denaturation of purified human native enzyme was monitored in the presence of the extrinsic fluorescent probe SYPRO Orange (Sigma-Aldrich, St. Louis, MO). The tested compounds were dissolved in 100% DMSO and diluted into the protein buffer to achieve final concentrations of 1% DMSO.
Recombinant human α-L-iduronidase protein (purchased from R&D) 12.5 µL of 1.5 µM in 100 mM Hepes 20 mM MgCl2 pH 7 (protein final concentration 0.75 µM) with Sypro Orange 10X and 12.5 µl of the different compound solutions were dispensed into 96-well PCR-plates. The intensity of SYPRO Orange fluorescence after a systematic increase of temperature was monitored in the Roche LightCycler® 480 II device (Roche Diagnostics).
The capacity to stabilize α-L-iduronidase is denoted as follows: • ΔTm GALC > 1 is shown as A; • ΔTm GALC between 0.5 and 1 is shown as B; • ΔTm GALC between 0.1 and 0.5 is shown as C; and • ΔTm GALC less than 0.1 is shown as D.
Background: Differential scanning fluorimetry follows unfolding on heating by fluorescence.

Consider `CN(C(=O)CN(Cc1nc2cc(F)ccc2c(=O)[nH]1)C1CC1)c1ccccc1Cl` [Example 65], for which the “DSF Activity range” value was “D (ΔTm GALC less than 0.1 is shown as D)”.
As for `Cc1ccc2nc(CN(C)CC(=O)N(C)c3ccccc3Cl)[nH]c(=O)c2c1` [Example 66], the entry is “B (ΔTm GALC between 0.5 and 1 is shown as B)”.
The entry for `CCN(CC(=O)N(C)c1nc(C)cs1)Cc1nc2ccc(F)cc2c(=O)[nH]1` [Example 67, 2-(ethyl((6-fluoro-4-oxo-3,4-dihydroquinazolin-2-yl)methyl)amino)-N-methyl-N-(4-methylthiazol-2-yl)acetamide] is “B (ΔTm GALC between 0.5 and 1 is shown as B)”; for `Cc1csc(N(C)C(=O)CN(C)Cc2nc3cc(F)ccc3c(=O)[nH]2)n1` [Example 68] it is “C (ΔTm GALC between 0.1 and 0.5 is shown as C)”; for `CCN(CC(=O)N(C)c1c(Cl)cccc1Cl)Cc1nc2ccc(F)cc2c(=O)[nH]1` [Example 69, 2-(N-ethyl-N-((6-fluoro-3,4-dihydro-4-oxoquinazolin-2-yl)methyl)amino)-N-(2,6-dichlorophenyl)-N-methylacetamide] it is “C (ΔTm GALC between 0.1 and 0.5 is shown as C)”.
As for `Cc1ccc2c(=O)[nH]c(CN(C)CC(=O)N(C)c3ccccc3Cl)nc2c1` [Example 70, 2-(N-((3,4-dihydro-7-methyl-4-oxoquinazolin-2-yl)methyl)-N-methylamino)-N-(2-chlorophenyl)-N-methylacetamide], the entry is “B (ΔTm GALC between 0.5 and 1 is shown as B)”; as for `CN(CC(=O)N1Cc2ccccc2C1)Cc1nc2cc(F)ccc2c(=O)[nH]1` [Example 71, 7-fluoro-2-(((2-(isoindolin-2-yl)-2-oxoethyl)(methyl)amino)methyl)quinazolin-4(3H)-one], “A (ΔTm GALC > 1 is shown as A)”.
For the molecule `CCN(CC(=O)N(C)c1c(Cl)cccc1Cl)Cc1nc2cc(F)ccc2c(=O)[nH]1` [Example 73, 2-(N-ethyl-N-((7-fluoro-3,4-dihydro-4-oxoquinazolin-2-yl)methyl)amino)-N-(2,6-dichlorophenyl)-N-methylacetamide], the “DSF Activity range” value is “C (ΔTm GALC between 0.1 and 0.5 is shown as C)”.
As for `CN(CC(=O)N(C)c1cccc(F)c1)Cc1nc2ccc(F)cc2c(=O)[nH]1` [Example 74], the entry is “B (ΔTm GALC between 0.5 and 1 is shown as B)”; as for `CN(CC(=O)N(C)c1ccc(Cl)c(Cl)c1)Cc1nc2cc(F)ccc2c(=O)[nH]1` [Example 75], “B (ΔTm GALC between 0.5 and 1 is shown as B)”; as for `CCCN(CC(=O)N(C)c1ccccc1Cl)Cc1nc2cc(F)ccc2c(=O)[nH]1` [Example 76], “D (ΔTm GALC less than 0.1 is shown as D)”.
As for `CN(CC(=O)N(C)c1cccc(F)c1)Cc1nc2cc(F)ccc2c(=O)[nH]1` [Example 77], the entry is “C (ΔTm GALC between 0.1 and 0.5 is shown as C)”; as for `Cc1ccc2nc(CN(CC(=O)N(C)c3ccccc3Cl)C3CC3)[nH]c(=O)c2c1` [Example 78, 2-(N-cyclopropyl-N-((3,4-dihydro-6-methyl-4-oxoquinazolin-2-yl)methyl)amino)-N-(2-chlorophenyl)-N-methylacetamide], “D (ΔTm GALC less than 0.1 is shown as D)”.
The entry for `CCN(CC(=O)N(C)c1ccccc1Cl)Cc1nc2ccc(C)cc2c(=O)[nH]1` [Example 79] is “C (ΔTm GALC between 0.1 and 0.5 is shown as C)”; for `CCCN(CC(=O)N(C)c1ccccc1Cl)Cc1nc2ccc(C)cc2c(=O)[nH]1` [Example 80] it is “B (ΔTm GALC between 0.5 and 1 is shown as B)”; for `Cc1ccc2nc(CN(C)CC(=O)N3CCc4ccccc43)[nH]c(=O)c2c1` [Example 81] it is “C (ΔTm GALC between 0.1 and 0.5 is shown as C)”.
On to `Cc1ccc2nc(CN(C)CC(=O)N(C)c3cccc(F)c3)[nH]c(=O)c2c1` [Example 82], for which the “DSF Activity range” value is “B (ΔTm GALC between 0.5 and 1 is shown as B)”.
As to `Cc1ccc2c(=O)[nH]c(CN(CC(=O)N(C)c3ccccc3Cl)C3CC3)nc2c1` [Example 83], the “DSF Activity range” value was “D (ΔTm GALC less than 0.1 is shown as D)”.
Consider `CCN(CC(=O)N(C)c1ccccc1Cl)Cc1nc2cc(C)ccc2c(=O)[nH]1` [Example 84], for which the “DSF Activity range” value is “C (ΔTm GALC between 0.1 and 0.5 is shown as C)”.
The entry for `CCCN(CC(=O)N(C)c1ccccc1Cl)Cc1nc2cc(C)ccc2c(=O)[nH]1` [Example 85] is “B (ΔTm GALC between 0.5 and 1 is shown as B)”; for `Cc1ccc2c(=O)[nH]c(CN(C)CC(=O)N3CCc4ccccc43)nc2c1` [Example 86] it is “D (ΔTm GALC less than 0.1 is shown as D)”.
Regarding `Cc1ccc2c(=O)[nH]c(CN(C)CC(=O)N(C)c3cccc(F)c3)nc2c1` [Example 87, 2-(N-((3,4-dihydro-7-methyl-4-oxoquinazolin-2-yl)methyl)-N-methylamino)-N-(3-fluorophenyl)-N-methylacetamide], the “DSF Activity range” value is on record as “D (ΔTm GALC less than 0.1 is shown as D)”.
In the case of `Cc1ccc2c(=O)[nH]c(CN(C)CC(=O)N(C)c3ccc(Cl)c(Cl)c3)nc2c1` [Example 88, 2-(N-((3,4-dihydro-7-methyl-4-oxoquinazolin-2-yl)methyl)-N-methylamino)-N-(3,4-dichlorophenyl)-N-methylacetamide], the “DSF Activity range” value was “B (ΔTm GALC between 0.5 and 1 is shown as B)”.
As for `Cc1ccc2nc(CN(C)CC(=O)N(C)c3ccc(Cl)c(Cl)c3)[nH]c(=O)c2c1` [Example 89, 2-(N-((3,4-dihydro-6-methyl-4-oxoquinazolin-2-yl)methyl)-N-methylamino)-N-(3,4-dichlorophenyl)-N-methylacetamide], the entry is “B (ΔTm GALC between 0.5 and 1 is shown as B)”.
As for `CN(CC(=O)N1Cc2ccccc2C1)Cc1nc2c(cnn2C)c(=O)[nH]1` [Example 90], the entry is “C (ΔTm GALC between 0.1 and 0.5 is shown as C)”; as for `CN(CC(=O)N1CCc2ccccc21)Cc1nc2c(cnn2C)c(=O)[nH]1` [Example 91], “B (ΔTm GALC between 0.5 and 1 is shown as B)”.
As for `CN(CC(=O)N(C)c1ccccc1Cl)Cc1nc2c(cnn2C)c(=O)[nH]1` [Example 92], the “DSF Activity range” value is “B (ΔTm GALC between 0.5 and 1 is shown as B)”.
As for `CCN(CC(=O)N(C)c1c(Cl)cccc1Cl)Cc1nc2c(cnn2C)c(=O)[nH]1` [Example 93, 2-(N-ethyl-N-((4,5-dihydro-l-methyl-4-oxo-1H-pyrazolo[3,4-d]pylimidin-6-yl)methyl)amino)-N-(2,6-dichlorophenyl)-N-methylacetamide], the entry is “C (ΔTm GALC between 0.1 and 0.5 is shown as C)”.
Regarding `CN(CC(=O)N(C)c1cccc(F)c1)Cc1nc2c(cnn2C)c(=O)[nH]1` [Example 94], the “DSF Activity range” value was “B (ΔTm GALC between 0.5 and 1 is shown as B)”.

The values are drawn from patent US20230140216A1, “COMBINATION THERAPY FOR TREATING MPS1” (GAIN THERAPEUTICS SA, priority 2020, published 2023).
